This is an account of results in patent US20110086886A2, “INSECTICIDAL ISOXAZOLINES” (Bayer CropScience AG, priority 2006, published 2011).

One series deals with Spodoptera litura larvae. Description: Test for Spodoptera litura larvae (leaf dip). The format is in vivo. To be noted: effective component concentration of 500 ppm, 3rd-instar larvae on dipped sweet potato leaves, after 7 days; for pest or weed control at 500 ppm: foliar, 168 h, read-out: insecticidal ratio. Here is the method: (§1) In order to obtain a preparation of a proper active compound, 1 part by weight of an active compound was mixed with the stated amounts of solvent and emulsifier and the mixture was diluted to a specified concentration with water.
The leaves of sweat potatoes were dipped in the test solution diluted to a specified concentration with water. After these leaves were dried in air to remove the chemical solution, they were placed in a Petri dish of 9 cm in diameter, in which 10 Spodoptera litura larvae of the 3rd-instar were set free. The Petri dish was placed in a thermostatic chamber kept at 25° C. and the leaves of sweat potatoes were added after 2 days and 4 days, to examine the number of dead larvae after 7 days, thereby calculating the insecticidal ratio of the chemical solution.
In this test, an average of the results in two Petri dishes in one section was calculated.

A further series has as its system Aulacophora femoralis. Description: Test for Aulacophora femoralis (spray test). It counts as in vivo. To be noted: effective component concentration of 500 ppm; 2nd-instar, dipped cucumber leaves; after 7 days. Here is the method: as §1
The leaves of cucumbers were dipped in the aqueous solution diluted to a specified concentration with water. After the chemical solution was dried in air, these leaves were placed in a plastic cup, in which sterilized black soil was placed. 5 Aulacophora femoralis of the 2nd-instar were set free in the soil, to examine the number of dead insects after 7 days, thereby calculating the insecticidal ratio of the chemical solution.

The test system of series [1] is Myzus persicas resistant to organic phosphorous agents and carbamate agents. Description: Test for Myzus persicas resistant to organic phosphorous agents and carbamate agents. The conditions noted are these: effective component concentration of 500 ppm; spray on egg plant; 24 hours after spraying. It counts as in vivo. Here is the method: as §1
About 200 head per plantlet of cultivated Myzus persicas resistant to phosphorous agents and carbamate agents were inoculated on an egg plant. The aqueous dilution containing the above prepared active compound having a specified concentration was sprayed on the egg plant in a sufficient amount by a spray gun one day after the inoculation. The egg plant was allowed to stand in a 28° C. green house, to calculate the insecticidal ratio 24 hours after the solution was sprayed. In this case, the test was made twice repeatedly.

The next series relates to Lucilia cuprina larvae. Put plainly: Test for Lucilia cuprina larvae. The format is in vivo. To be noted: 48 h, read-out: larval mortality. The method, then:
20 mg of active compound are dissolved in 1 ml of dimethyl sulphoxide. To prepare a suitable formulation (e.g. 100 ppm), the active compound solution is diluted to the respective desired concentration with water (e.g. 1 part by weight active compound solution with 199 parts by weight water).
Approximately 20 Lucilia cuprina larvae are introduced into a test tube which contains approx. 1 cm^3 horse meat and 0.5 ml of the active compound preparation to be tested. After 48 hours, the efficacy of the active compound preparation is determined as % larval mortality. 0%: no larvae were killed, 100%: all larvae were killed.

Series [2] concerns Ctenocephalides felis, strain "Georgi". Description: Test for cat fleas / oral uptake. The format is in vivo. The conditions noted are these: in Bos taurus, 48 h, read-out: kill (mortality). Here is the method:
20 mg of the active compound are dissolved in 1 ml dimethylsulphoxide To prepare a suitable formulation (e.g. 100 ppm), the active compound solution is diluted to the respective desired concentration with cattle blood (e.g. 1 part by weight active compound solution with 199 parts by weight cattle blood).
20 unfed adult fleas (Ctenocephalides felis, strain “Georgi”) are placed into a chamber (Ø 5 cm) whose top and bottom are closed with gauze. A metal cylinder whose underside is covered with parafilm is placed onto the chamber. The cylinder contains the blood/active compound formulation which can be taken up by the fleas through the parafilm membrane. Whereas the blood is warmed to 37° C., the temperature in the area of the flea chambers is adjusted to room temperature.
After the desired time the mortality in % is determined. Here 100% means that all fleas were killed; 0% means that no fleas were killed.

Take `FC(F)(F)C1(c2cc(Cl)cc(Cl)c2)CC(c2ccc(-n3cccc3)cc2)=NO1` (stereo not drawn): the melting point is 206 to 208 °C.
Compound `FC(F)(F)c1nnnn1-c1ccc(C2=NOC(c3cc(Cl)cc(Cl)c3)(C(F)(F)F)C2)cc1` (stereo not drawn) came in with a melting point of 147 to 151 °C.
On to `FC(F)(F)c1cc(C(F)(F)F)cc(C2(C(F)(F)F)CC(c3ccc(-n4cncn4)cc3)=NO2)c1` (racemic) [Compound 132], for which the insecticidal ratio with Spodoptera litura larvae and in the series with Aulacophora femoralis was 100% each time.
As to `FC(F)(F)c1cc(C(F)(F)F)cc(C2(C(F)(F)F)CC(c3ccc(-n4cncn4)c(Br)c3)=NO2)c1` (racemic) [Compound 134], the insecticidal ratio with Spodoptera litura larvae and in the series on Aulacophora femoralis was 100% in each case.
Take `N#Cc1cc(C2=NOC(c3cc(C(F)(F)F)cc(C(F)(F)F)c3)(C(F)(F)F)C2)ccc1-n1cncn1` (racemic) [Compound 135]: the insecticidal ratio (with Spodoptera litura larvae; with Aulacophora femoralis; in series [1]) was 100% in each case.
Take `O=[N+]([O-])c1cc(C2=NOC(c3cc(C(F)(F)F)cc(C(F)(F)F)c3)(C(F)(F)F)C2)ccc1-n1cncn1` (racemic) [Compound 136]: the insecticidal ratio in the series on Spodoptera litura larvae and with Aulacophora femoralis was 100% in each case.
For `FC(F)(F)C1(c2cc(Cl)cc(Cl)c2)CC(c2ccc(-n3cnnn3)c(Cl)c2)=NO1` (racemic) [Compound 150], the insecticidal ratio in the series with Spodoptera litura larvae and in the series with Aulacophora femoralis was 100% in each case.
Turning to `N#Cc1cc(C2=NOC(c3cc(Cl)cc(Cl)c3)(C(F)(F)F)C2)ccc1-n1cc(Cl)cn1` (stereo not drawn) [Compound 17], the pest or weed control at 500 ppm in the series with Spodoptera litura larvae is 100%. Besides, the results for the mortality at 100 ppm (with Lucilia cuprina larvae; in series [2]) were above 95% and above 80%, respectively.
In the case of `N#Cc1cc(C2=NOC(c3cc(Cl)cc(Cl)c3)(C(F)(F)F)C2)ccc1-n1cc([N+](=O)[O-])cn1` (stereo not drawn) [Compound 21], the insecticidal ratio in the series on Spodoptera litura larvae and in the series on Aulacophora femoralis was 100% throughout.
For the compound `O=[N+]([O-])c1cc(C2=NOC(c3cc(Cl)cc(Cl)c3)(C(F)(F)F)C2)ccc1-n1cc(F)cn1` (stereo not drawn) [Compound 25], the insecticidal ratio in the series on Spodoptera litura larvae and in the series with Aulacophora femoralis was 100% in each case.
As for `N#Cc1cc(C2=NOC(c3cccc(C(F)(F)F)c3)(C(F)(F)F)C2)ccc1-n1cc([N+](=O)[O-])cn1` (stereo not drawn) [Compound 38], the insecticidal ratio (in the series on Spodoptera litura larvae; with Aulacophora femoralis; in series [1]) was 100% each time.
`FC(F)(F)C1(c2cccc(Cl)c2)CC(c2ccc(-n3cncn3)cc2)=NO1` (stereo not drawn) [Compound 86]: the insecticidal ratio in the series on Spodoptera litura larvae and in the series with Aulacophora femoralis was 100% throughout.
Turning to `N#Cc1cc(C2=NOC(c3cccc(Cl)c3)(C(F)(F)F)C2)ccc1-n1cncn1` (stereo not drawn) [Compound 89], the insecticidal ratio in the series on Spodoptera litura larvae and with Aulacophora femoralis was 100% in each case.
In the case of `N#Cc1cc(C2=NOC(c3cc(Cl)cc(Cl)c3)(C(F)(F)F)C2)ccc1-n1cncn1` (stereo not drawn) [Compound 101, 5-[5-(3,5-dichlorophenyl)-5-(trifluoromethyl)-4,5-dihydroisoxazol-3-yl)-2-(1H-1,2,4-triazol-1-yl)benzonitrile], in the series with Spodoptera litura larvae, the pest or weed control at 500 ppm was determined as 100%. Moreover, the insecticidal ratio (with Aulacophora femoralis; in series [1]) was 100% in each case.
As for `O=[N+]([O-])c1cc(C2=NOC(c3cc(Cl)cc(Cl)c3)(C(F)(F)F)C2)ccc1-n1cncn1` (stereo not drawn) [Compound 104, 1-{4-[5-[3,5-dichlorophenyl]-5-(trifluoromethyl)-4,5-dihydroisoxazol-3-yl]-2-nitrophenyl}-1H-1,2,4-triazole], the pest or weed control at 500 ppm in the series with Spodoptera litura larvae turned out to be 100%. The insecticidal ratio in the series on Aulacophora femoralis worked out at 100%.
Turning to `CC(=O)Nc1cc(C2=NOC(c3cc(Cl)cc(Cl)c3)(C(F)(F)F)C2)ccc1-n1cncn1` (stereo not drawn) [Compound 106, N-{5-[5-(3,5-dichlorophenyl)-5-(trifluoromethyl)-4,5-dihydroisoxazol-3-yl]-2-(1H-1,2,4-triazol-1-yl)phenyl}acetamide], in the series with Spodoptera litura larvae, the pest or weed control at 500 ppm came to 100%. For the same compound, in the series on Aulacophora femoralis, the insecticidal ratio amounted to 100%.
For the compound `FC(F)(F)C1(c2cc(Cl)cc(Cl)c2)CC(c2ccc(-n3cnnn3)cc2)=NO1` (stereo not drawn) [Compound 148, 1-{4-[5-(3,5-dichlorophenyl)-5-(trifluoromethyl)-4,5-dihydroisoxazol-3-yl]phenyl}-1H-tetrazole], the pest or weed control at 500 ppm with Spodoptera litura larvae was 100%. In addition, in the series with Aulacophora femoralis, the insecticidal ratio stood at 100%.
For the compound `FC(F)(F)C1(c2cc(Cl)cc(Cl)c2)CC(c2ccc(-n3cnnn3)c(Br)c2)=NO1` (stereo not drawn) [Compound 151], the insecticidal ratio in the series on Spodoptera litura larvae and in the series with Aulacophora femoralis was 100% throughout.
Consider `N#Cc1cc(C2=NOC(c3cc(Cl)cc(Cl)c3)(C(F)(F)F)C2)ccc1-n1cnnn1` (stereo not drawn) [Compound 153], for which the insecticidal ratio (in the series with Spodoptera litura larvae; in the series on Aulacophora femoralis; in series [1]) was 100% throughout.
For `O=[N+]([O-])c1cc(C2=NOC(c3cc(Cl)cc(Cl)c3)(C(F)(F)F)C2)ccc1-n1cnnn1` (stereo not drawn) [Compound 154], the insecticidal ratio in the series on Spodoptera litura larvae and in the series with Aulacophora femoralis was 100% in each case.
With `FC(F)(F)c1cccc(C2(C(F)(F)F)CC(c3ccc(-n4cnnn4)cc3)=NO2)c1` (stereo not drawn) [Compound 157], the insecticidal ratio in the series with Spodoptera litura larvae and in the series on Aulacophora femoralis was 100% throughout.
Consider `N#Cc1cc(C2=NOC(c3cccc(C(F)(F)F)c3)(C(F)(F)F)C2)ccc1-n1cnnn1` (stereo not drawn) [Compound 160], for which the insecticidal ratio in the series with Spodoptera litura larvae and in the series with Aulacophora femoralis was 100% throughout.
With `O=[N+]([O-])c1cc(C2=NOC(c3cccc(C(F)(F)F)c3)(C(F)(F)F)C2)ccc1-n1cnnn1` (stereo not drawn) [Compound 161], the insecticidal ratio in the series with Spodoptera litura larvae and with Aulacophora femoralis was 100% each time.
As to `N#Cc1cc(C2=NOC(c3cc(C(F)(F)F)cc(C(F)(F)F)c3)(C(F)(F)F)C2)ccc1-n1cnnn1` (stereo not drawn) [Compound 165], the insecticidal ratio in the series on Spodoptera litura larvae and in the series on Aulacophora femoralis was 100% in each case.
For the compound `O=[N+]([O-])c1cc(C2=NOC(c3cc(C(F)(F)F)cc(C(F)(F)F)c3)(C(F)(F)F)C2)ccc1-n1cnnn1` (stereo not drawn) [Compound 166, 1-(4-{5-[3,5-bis(trifluoromethyl)phenyl]-5-(trifluoromethyl)-4,5-dihydroisoxazol-3-yl}-2-nitrophenyl)-1H-tetrazole], in the series on Spodoptera litura larvae, the pest or weed control at 500 ppm stood at 100%. The insecticidal ratio in the series with Aulacophora femoralis is given as 100%.
With `N#Cc1cc(C2=NOC(c3cc(Cl)cc(Cl)c3)(C(F)(F)F)C2)ccc1-n1ncnn1` (stereo not drawn) [Compound 171], the insecticidal ratio with Spodoptera litura larvae and in the series with Aulacophora femoralis was 100% in each case.
Regarding `N#Cc1cc(C2=NOC(c3cc(Cl)cc(Cl)c3)(C(F)(F)F)C2)ccc1-n1cc(N)cn1` (stereo not drawn) [Compound 181], the insecticidal ratio with Spodoptera litura larvae and in the series on Aulacophora femoralis was 100% throughout.

As a reminder, the melting point is the temperature of the solid-liquid transition. By mortality is commonly meant the percentage killed.
